target: T1, Sodium/glucose cotransporter 2 (Homo sapiens, UniProt P31639); assay: Inhibition Assay: For sodium-dependent glucose transport assay, cells expressing hSGLT2 were seeded into a 96-well culture plate at a density of 5x10^4 cells/well in RPMI medium 1640 containing 10% fetal bovine serum. The cells were used 1 day after plating. They were incubated in pretreatment buffer (10 mM HEPES, 5 mM Tris, 140 mM choline chloride, 2 mM KCl, 1 mM CaCl2, and 1 mM MgCl2, pH 7.4) at 37 C. for 10 min. They were then incubated in uptake buffer (10 mM HEPES, 5 mM Tris, 140 mM NaCl, 2 mM KCl, 1 mM CaCl2, 1 mM MgCl2, and 1 mM 14C-nonlabeled AMG pH 7.4) containing 14C-labeled AMG (8 uM) and the inventive compound or dimethyl sulfoxide (DMSO) vehicle at 37 C. for 2 h. Cells were washed twice with washing buffer (pretreatment buffer containing 10 mM AMG at room temperature) and then the radioactivity was measured using a liquid scintillation counter. IC50 was determined by nonlinear regression analysis using GraphPad PRISM [Katsuno, K. et al. J. Pharmacol. Exp. Ther. 2007, 320, 323-330].
T1 sequence (P31639 whole entry): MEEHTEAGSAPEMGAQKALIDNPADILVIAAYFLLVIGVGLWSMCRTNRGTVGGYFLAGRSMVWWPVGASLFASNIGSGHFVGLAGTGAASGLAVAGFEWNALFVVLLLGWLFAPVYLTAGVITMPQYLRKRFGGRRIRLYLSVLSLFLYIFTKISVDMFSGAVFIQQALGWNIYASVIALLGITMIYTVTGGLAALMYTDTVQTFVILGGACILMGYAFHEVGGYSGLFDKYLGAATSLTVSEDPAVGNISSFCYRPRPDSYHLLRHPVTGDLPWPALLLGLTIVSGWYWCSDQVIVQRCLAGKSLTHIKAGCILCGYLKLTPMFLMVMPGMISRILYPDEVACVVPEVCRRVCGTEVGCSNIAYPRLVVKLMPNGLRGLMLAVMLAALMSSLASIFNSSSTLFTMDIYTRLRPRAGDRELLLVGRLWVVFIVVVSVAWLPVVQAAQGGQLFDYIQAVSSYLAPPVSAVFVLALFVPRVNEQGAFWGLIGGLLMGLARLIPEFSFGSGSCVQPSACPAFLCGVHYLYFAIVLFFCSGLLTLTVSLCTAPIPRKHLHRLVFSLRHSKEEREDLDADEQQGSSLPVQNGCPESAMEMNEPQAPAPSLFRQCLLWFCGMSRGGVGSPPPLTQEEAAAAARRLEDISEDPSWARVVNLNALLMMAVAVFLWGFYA

| SMILES | IC50 [nM] |
| --- | --- |
| CCOc1ccc(Cc2cc([C@@H]3O[C@H](CO)[C@@H](O)[C@H](O)[C@H]3O)c3c(c2Cl)NCCO3)cc1 | 2.42 |
| CCOc1ccc(Cc2cc([C@@H]3O[C@H](CO)[C@@H](O)[C@H](O)[C@H]3O)c3c(c2C2CC2)OCC3)cc1 | 13.8 |
| CCOc1ccc(Cc2cc([C@@H]3O[C@H](CO)[C@@H](O)[C@H](O)[C@H]3O)c3c(c2Cl)OCO3)cc1 | 1.08 |

Next, values leading:

| IC50 [nM] | SMILES |
| --- | --- |
| 3.49 | OC[C@H]1O[C@@H](c2cc(Cc3ccc(N4CCC4)cc3)c(Cl)c3c2CCO3)[C@H](O)[C@@H](O)[C@@H]1O |
| 1.75 | OC[C@H]1O[C@@H](c2cc(Cc3ccc(N4CCC4)cc3)c(Cl)c3c2CCC3)[C@H](O)[C@@H](O)[C@@H]1O |
